This passage reports melting point and IC50 results from patent US6596722B2, “Piperidine, tetrahydropyridine and piperazine derivatives, their preparation and use” (H. Lundbeck A/S, priority 1999, dated 2003).

One may read the melting point as the temperature, or range, at which the solid turns liquid. What is called IC50 is the concentration at which inhibition is half-maximal.

One data set addresses T1, human 5-HT1A receptors (Homo sapiens, UniProt P08908).
T1 construct: expressed in transfected cells; host or cells: HeLa cells (HA7)
T1 sequence (P08908 1-422): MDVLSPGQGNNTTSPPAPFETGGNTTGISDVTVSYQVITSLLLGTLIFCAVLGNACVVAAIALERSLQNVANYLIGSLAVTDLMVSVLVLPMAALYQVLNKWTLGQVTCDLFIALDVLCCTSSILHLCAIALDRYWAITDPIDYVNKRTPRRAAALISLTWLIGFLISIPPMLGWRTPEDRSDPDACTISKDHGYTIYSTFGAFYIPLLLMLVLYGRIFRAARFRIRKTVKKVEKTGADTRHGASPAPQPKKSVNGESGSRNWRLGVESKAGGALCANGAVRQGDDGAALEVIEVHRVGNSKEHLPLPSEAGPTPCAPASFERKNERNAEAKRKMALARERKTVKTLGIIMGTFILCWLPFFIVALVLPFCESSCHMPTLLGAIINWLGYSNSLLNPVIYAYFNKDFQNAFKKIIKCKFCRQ
As to the kind of experiment: Inhibition of 3H-5-CT binding to human 5-HT1A receptors. The method, then:
Inhibition of ^3H-5-CT Binding to Human 5-HT1A Receptors.
Human 5-HT1A receptors (40 μg of cell homogenate) were incubated for 15 minutes at 37° C. in 50 mM Tris buffer at pH 7.7 in the presence of ^3H-5-CT. Non-specific binding was determined by including 10 μM of metergoline. The reaction was terminated by rapid filtration through Unifilter GF/B filters on a Tomtec Cell Harvester. Filters were counted in a Packard Top Counter.

In data set [1] the target is T2, 3H-5-HT uptake into whole rat brain synaptosomes (serotonin reuptake) (Rattus norvegicus, UniProt P31652).
T2 construct: from tissue; host or cells: whole rat brain synaptosomes
As to the kind of experiment: Inhibition of 3H-5-HT uptake into rat brain synaptosomes. In kind it is biochemical. The method, then:
Inhibition of ^3H-5-HT Uptake Into Rat Brain Synaptosomes.
Using this method, the ability of drugs to inhibit the accumulation of ^3H-5-HT into whole rat brain synaptosomes is determined in vitro.

The target of data set [2] is T3, cloned 5-HT1A receptors stably expressed in transfected HeLa cells (HA7) (Homo sapiens, UniProt P08908).
T3 construct: expressed in transfected cells; host or cells: HeLa cells (HA7)
T3 sequence (P08908 1-422): T1 sequence (P08908 1-422)
The data set is described as follows: 5-HT1A antagonistic activity: antagonism of 5-HT induced inhibition of forskolin induced cAMP accumulation. The format is cell-based. The note with it: HeLa cells (HA7) expressing cloned 5-HT1A receptors. The method, then: The assay was performed as a modification of the method described by Pauwels, P. J. et al, Biochem. Pharmacol. 1993, 45, 375.
For orientation: Changes in cAMP serve as a functional read-out for many G protein-coupled receptors.

[3] abbreviates: cloned human 5-HT1A receptors in HeLa cells (HA7) homogenate, 15 minutes at 37° C., pH 7.7.
Setting [4] is: 3H-5-HT accumulation into whole rat brain synaptosomes, in vitro, read-out: Inhibition of serotonin reuptake IC50.

Structures can show the parent of a compound that is named as a salt. Where two headings read alike, the source gives them in different places.

T2 sequence (P31652 whole entry): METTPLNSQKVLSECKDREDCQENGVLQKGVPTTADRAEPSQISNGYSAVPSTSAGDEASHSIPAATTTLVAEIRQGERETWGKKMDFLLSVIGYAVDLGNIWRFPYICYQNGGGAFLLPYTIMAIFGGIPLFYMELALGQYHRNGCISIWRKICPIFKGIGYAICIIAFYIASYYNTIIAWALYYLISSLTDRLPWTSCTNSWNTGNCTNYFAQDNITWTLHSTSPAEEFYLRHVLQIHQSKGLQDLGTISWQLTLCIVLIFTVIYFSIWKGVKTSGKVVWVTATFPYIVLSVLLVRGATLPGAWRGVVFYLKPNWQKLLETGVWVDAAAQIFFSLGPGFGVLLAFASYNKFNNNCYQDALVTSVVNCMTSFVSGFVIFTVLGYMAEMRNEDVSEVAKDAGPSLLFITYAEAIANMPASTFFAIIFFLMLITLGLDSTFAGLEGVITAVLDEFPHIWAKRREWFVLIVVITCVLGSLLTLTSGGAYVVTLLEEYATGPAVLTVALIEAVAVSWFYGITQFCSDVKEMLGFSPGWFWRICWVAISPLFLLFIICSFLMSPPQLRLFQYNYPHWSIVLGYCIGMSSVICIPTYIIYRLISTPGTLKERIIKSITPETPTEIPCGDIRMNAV

`Fc1ccc2c(CCCN3CCN(c4cccc5c4OCCO5)CC3)noc2c1` (as salt: fumarate) [Compound 3b, 1-[1,4-Benzodioxan-5-yl]-4-[3-(6-fluorobenzo[1,2]isoxazol-3-yl)-1-propyl]piperazine] yielded a melting point of 187 to 189 °C.

For `C(=CC1CCc2ccccc21)CCN1CCN(c2cccc3c2OCCO3)CC1` (stereo not drawn) (as salt: oxalate) [Compound 1b, 1-[1,4-Benzodioxan-5-yl]-4-[1-(indan-1-yl)-1-buten-4-yl]piperazine], the melting point fell in the range of 154 to 157 °C.

`c1ccc2c(c1)CCC2CCCCN1CCN(c2cccc3c2OCCO3)CC1` (stereo not drawn) (as salt: oxalate) [Compound 1c, 1-[1,4-Benzodioxan-5-yl]-4-[1-(indan-1-yl)-4-butyl]piperazine] returned a melting point of 154 to 155 °C. Regarding `Clc1ccc2c(CCN3CCN(c4cccc5c4OCCO5)CC3)n[nH]c2c1` (as salt: oxalate) [Compound 2b, 1-[1,4-Benzodioxan-5-yl]-4-[2-(6-chloroindazol-3-yl)ethyl]piperazine], the melting point lay in the range of 111 to 113 °C. `Cc1cccc2occ(CCN3CCN(c4cccc5c4OCCO5)CC3)c12` (as salt: oxalate) [Compound 3c, 1-[1,4-Benzodioxan-5-yl]-4-[2-(4-methylbenzofuran-3-yl)ethyl]piperazine] came in with a melting point of 204 to 206 °C. `Clc1ccc2occ(CCN3CCN(c4cccc5c4OCCO5)CC3)c2c1` (as salt: oxalate) [Compound 3d, 1-[1,4-Benzodioxan-5-yl]-4-[2-(5-chlorobenzofuran-3-yl)ethyl]piperazine]: the melting point lay within 206 to 208 °C. `Cc1ccc2c(CCN3CCN(c4cccc5c4OCCO5)CC3)coc2c1` (as salt: oxalate) [Compound 3e, 1-[1,4-Benzodioxan-5-yl]-4-[2-(6-methylbenzofuran-3-yl)ethyl]piperazine] came in with a melting point of 174 to 176 °C. The same measure, in the same setting: for `c1cc2c(c(N3CCN(CCc4coc5ccccc45)CC3)c1)OCCO2` (as salt: oxalate) [Compound 3f, 1-[1,4-Benzodioxan-5-yl]-4-[2-(benzofuran-3-yl)ethyl]piperazine] the value was 206 to 208 °C; for `Clc1ccc2occ(CCN3CC=C(c4cccc5c4OCC5)CC3)c2c1` (as salt: oxalate) [Compound 3g, 1-[2-(5-chlorobenzofuran-3-yl)ethyl]-4-[2,3-dihydrobenzofuran-7-yl]-1,2,3,6-tetrahydropyridine], 187 to 202 °C. In the case of `Fc1ccc2occ(CCN3CC=C(c4cccc5ccoc45)CC3)c2c1` (as salt: oxalate) [Compound 3h, 4-[Benzofuran-7-yl]-1-[2-(5-fluorobenzofuran-3-yl)ethyl]-1,2,3,6-tetrahydropyridine], the melting point lay within 201 to 211 °C. On to `Clc1cccc2c(CCN3CCN(c4cccc5c4OCCO5)CC3)coc12` (as salt: oxalate) [Compound 3i, 1-[1,4-Benzodioxan-5-yl]-4-[2-(7-chlorobenzofuran-3-yl)ethyl]piperazine], for which the melting point was 190 to 192 °C.

For the compound `C1=CC(CCCCN2CCN(c3cccc4c3OCCO4)CC2)c2ccccc21` (stereo not drawn) [Compound 1a, 1-[1,4-Benzodioxan-5-yl]-4-[1-(inden-1-yl)-4-butyl]piperazine], the half-inhibitory concentration (IC50) at human 5-HT1A receptors (setting [3]) was 1.7 nM; in data set [1] (setting [4]), 61 nM; in data set [2] it was 170 nM.

For the compound `C(=CC1CCc2ccccc21)CCN1CCN(c2cccc3c2OCCO3)CC1` (stereo not drawn) [Compound 1b, 1-[1,4-Benzodioxan-5-yl]-4-[1-(indan-1-yl)-1-buten-4-yl]piperazine], the IC50 at human 5-HT1A receptors (setting [3]) turned out to be 6.1 nM.

Consider `c1ccc2c(c1)CCC2CCCCN1CCN(c2cccc3c2OCCO3)CC1` (stereo not drawn) [Compound 1c, 1-[1,4-Benzodioxan-5-yl]-4-[1-(indan-1-yl)-4-butyl]piperazine], for which the results for the IC50 (at human 5-HT1A receptors (setting [3]); in data set [1] (setting [4])) were 2.5 nM and 130 nM, respectively. For the compound `Fc1ccc2occ(CCN3CCN(c4cccc5c4OCCO5)CC3)c2c1` [Compound 2a, 1-[1,4-Benzodioxan-5-yl]-4-[2-(5-fluorobenzofuran-3-yl)ethyl]piperazine], the IC50 at human 5-HT1A receptors (setting [3]) was 14 nM; in data set [1] (setting [4]), 0.69 nM; in data set [2] it was 100 nM. As to `Clc1ccc2c(CCN3CCN(c4cccc5c4OCCO5)CC3)n[nH]c2c1` [Compound 2b, 1-[1,4-Benzodioxan-5-yl]-4-[2-(6-chloroindazol-3-yl)ethyl]piperazine], the IC50 turned out to be 9.3 nM at human 5-HT1A receptors (setting [3]) and 160 nM in data set [1] (setting [4]).

Take `Fc1ccc2occ(CCN3CCN(c4cccc5ccoc45)CC3)c2c1` [Compound 3a, 1-[Benzofuran-7-yl]-4-[2-(5-fluorobenzofuran-3-yl)ethyl]piperazine]: the results for the half-maximal inhibitory concentration (IC50) (at human 5-HT1A receptors (setting [3]); in data set [1] (setting [4])) were 29 nM and 170 nM, respectively. Take `Fc1ccc2c(CCCN3CCN(c4cccc5c4OCCO5)CC3)noc2c1` [Compound 3b, 1-[1,4-Benzodioxan-5-yl]-4-[3-(6-fluorobenzo[1,2]isoxazol-3-yl)-1-propyl]piperazine]: the IC50 at human 5-HT1A receptors (setting [3]) was determined as 7.5 nM; in data set [1] (setting [4]), 240 nM; in data set [2] it was 74 nM. With `Cc1cccc2occ(CCN3CCN(c4cccc5c4OCCO5)CC3)c12` [Compound 3c, 1-[1,4-Benzodioxan-5-yl]-4-[2-(4-methylbenzofuran-3-yl)ethyl]piperazine], the IC50 on human 5-HT1A receptors (setting [3]) is 19 nM; in data set [1] (setting [4]), 11 nM; in data set [2], 2300 nM. For the compound `Clc1ccc2occ(CCN3CCN(c4cccc5c4OCCO5)CC3)c2c1` [Compound 3d, 1-[1,4-Benzodioxan-5-yl]-4-[2-(5-chlorobenzofuran-3-yl)ethyl]piperazine], the values for the IC50 (at human 5-HT1A receptors (setting [3]); in data set [1] (setting [4]); in data set [2]) were 18 nM, 34 nM and 550 nM, respectively. For `Cc1ccc2c(CCN3CCN(c4cccc5c4OCCO5)CC3)coc2c1` [Compound 3e, 1-[1,4-Benzodioxan-5-yl]-4-[2-(6-methylbenzofuran-3-yl)ethyl]piperazine], the IC50 at human 5-HT1A receptors (setting [3]) worked out at 8.8 nM; in data set [1] (setting [4]), 58 nM; in data set [2], 1400 nM. As for `c1cc2c(c(N3CCN(CCc4coc5ccccc45)CC3)c1)OCCO2` [Compound 3f, 1-[1,4-Benzodioxan-5-yl]-4-[2-(benzofuran-3-yl)ethyl]piperazine], the IC50 on human 5-HT1A receptors worked out at 8.3 nM; in data set [1], 12 nM; in data set [2] it was 290 nM. Turning to `Clc1ccc2occ(CCN3CC=C(c4cccc5c4OCC5)CC3)c2c1` [Compound 3g, 1-[2-(5-chlorobenzofuran-3-yl)ethyl]-4-[2,3-dihydrobenzofuran-7-yl]-1,2,3,6-tetrahydropyridine], the figures for the IC50 (at human 5-HT1A receptors; in data set [1] (setting [4])) were 24 nM and 160 nM, respectively.

As for `Fc1ccc2occ(CCN3CC=C(c4cccc5ccoc45)CC3)c2c1` [Compound 3h, 4-[Benzofuran-7-yl]-1-[2-(5-fluorobenzofuran-3-yl)ethyl]-1,2,3,6-tetrahydropyridine], the results for the IC50 (on human 5-HT1A receptors; in data set [1]) were 11 nM and 43 nM, respectively. On to `Clc1cccc2c(CCN3CCN(c4cccc5c4OCCO5)CC3)coc12` [Compound 3i, 1-[1,4-Benzodioxan-5-yl]-4-[2-(7-chlorobenzofuran-3-yl)ethyl]piperazine], for which the results for the IC50 (at human 5-HT1A receptors (setting [3]); in data set [1] (setting [4]); in data set [2]) were 2.1 nM, 1.5 nM and 1500 nM, respectively. As to `Cc1ccc(Cl)c2occ(CCCN3CCN(c4cccc5c4OCCO5)CC3)c12` [Compound 4a, 1-[1,4-Benzodioxan-5-yl]-4-[3-(7-chloro-4-methylbenzofuran-3-yl)-1-propyl]piperazine], the IC50 in data set [1] (setting [4]) came to 32 nM; in data set [2], 260 nM. As for `Cc1cccc2occ(CCCN3CCN(c4cccc5c4OCCO5)CC3)c12` [Compound 5a, 1-[1,4-Benzodioxan-5-yl]-4-[3-(4-methylbenzofuran-3-yl)-1-propyl]piperazine], the IC50 on human 5-HT1A receptors (setting [3]) was determined as 2.9 nM; in data set [1] (setting [4]), 15 nM; in data set [2], 390 nM.
